In US11166931B2, “Induction of arteriogenesis with an NO (nitric oxide) donor” (G. Pohl-Boskamp GmbH & Co. KG, priority 2012, dated 2021):
Entries after “also recorded” stand apart in the source; their conditions may differ.

How the values were obtained:
arteriogenesis = settings: nitroglycerin: administered continuously; cited from earlier work
Sprague-Dawley rats [1] = test: ST segment elevation (ECG) during final permanent LAD occlusion (FPO), rat repetitive ischemia protocol (RIP) arteriogenesis model; type: in vivo
Sprague-Dawley rats [2] = test: Infarct size by TTC staining after final permanent occlusion; type: in vivo, rat
Sprague-Dawley rats [3] = test: Ventricular arrhythmias during FPO, Lown classification and VPB score; settings: rat, in vivo

## CC(=O)Oc1ccccc1C(=O)O [ASA, acetyl salicylic acid]
arteriogenesis
  effect on arteriogenesis described in the art (in words): inhibitor of arteriogenesis
Sprague-Dawley rats [1]; 5 DAYS RIP
  ST elevation / ECG parameters during FPO compared to controls (in words): impairment of ECG parameters
Sprague-Dawley rats [2]; 5 DAYS RIP
  infarct size / infarct volume compared to other groups (in words): increase of infarct volumes

## CC(=O)Oc1ccccc1C(=O)O [ASA+NTG-PLACEBO]
Sprague-Dawley rats [3]
  VPB-Score: 5.50
  rats with class IIIa arrhythmias (Lown) during FPO: 16.7%
  rats with class IVb arrhythmias (Lown) during FPO: 83.3%
Sprague-Dawley rats [2]; rat, in vivo
  Infarct size (percentage of the area of the left ventricle): 13.92 ±1.71%

## O=[N+]([O-])O[C@H]1CO[C@H]2[C@@H]1OC[C@H]2O[N+](=O)[O-] [ISDN, isosorbide dinitrate]
Sprague-Dawley rats [3]
  arrhythmias during FPO compared to controls (in words): less arrhythmias
Sprague-Dawley rats [1]; rat, in vivo
  ST elevation / ECG parameters during FPO compared to controls (in words): non-significantly decreased; also recorded: decreases in ST elevation
Sprague-Dawley rats [2]; rat, in vivo
  infarct size / infarct volume compared to other groups (in words): reduced infarct volumes

## O=[N+]([O-])OCC(CO[N+](=O)[O-])O[N+](=O)[O-] [NTG, nitroglycerin]
Sprague-Dawley rats [3]
  arrhythmias during FPO compared to controls (in words): decreased serious arrhythmias
arteriogenesis
  effect on arteriogenesis described in the art (in words): not able to induce angiogenesis (neovascularisation) or arteriogenesis
Sprague-Dawley rats [1]; rat, in vivo
  ST elevation / ECG parameters during FPO compared to controls (in words): significantly attenuated ST elevation
Sprague-Dawley rats [2]; rat, in vivo
  infarct volume decreased compared to the control group: more than 50%
